Reference: patent US11773066B2, “Indazolylcyanoethylamino compound, compositions of same, method of making, and methods of using thereof” (BOEHRINGER INGELHEIM ANIMAL HEALTH USA INC., priority 2018, dated 2023)
≈ marks a conversion by molar mass, not a printed value.

What was measured:
[1] = tested on: Haemonchus placei; assay: In vivo efficacy in experimentally infected calves, worm count reduction; details: oral, single treatment Day 0, necropsy Day 16, vs untreated control, Compound I 2 mg/kg, eprinomectin 0.075 mg/kg, ivermectin 0.150 mg/kg
Source text: (§1) The efficacy of Compound I against parasitic gastrointestinal nematodes in cattle when administered orally as an oral solution was studied. Thirty male castrate dairy calves of approximately 8 to 12 weeks of age were experimentally infected with parasitic nematodes. The calves were inoculated with Haemonchus […] Ostertagia ostertagi on Day -33 and with Cooperia punctata and Cooperia oncophora on Day -21. Calves were allocated to one of the six treatment groups. Calves in Treatment Group 1 were not treated. Calves in Treatment Groups 2-6 were treated on Day 0 as outlined in the Table 2 below with a formulation containing 5% (w/v) of Compound I in a carrier comprising 50% (v/v) PEG 400 with the remainder (QS to 130 mL0 PEG 300. [table] All calves were euthanized on Day 16 and the abomasum and small intestine were recovered from each calf and processed for parasite recovery. All five calves in the untreated control group harbored adequate infections of […]. ostertagi, C. punctate and C. oncophora. The efficacy of each treatment group relative to the control group is shown in Table 3 below: […]

[2] = tested on: Ostertagia ostertagi; assay: as above; details: oral, single treatment Day 0, necropsy Day 16, vs untreated control, Compound I 2 mg/kg, eprinomectin 0.075 mg/kg, ivermectin 0.150 mg/kg
Source text: as §1

[3] = tested on: Cooperia oncophora; assay: as above; details: oral; for efficacy against C. oncophora males in words: Compound I compared with eprinomectin (Group 3) or ivermectin (Group 4); for % Reduction in Worm Counts, C. oncophora Males: single treatment Day 0, necropsy Day 16, vs untreated control, Compound I 2 mg/kg, eprinomectin 0.075 mg/kg, ivermectin 0.150 mg/kg
Source text: as §1

[4] = tested on: Cooperia punctata; assay: as above; details: oral, single treatment Day 0, necropsy Day 16, vs untreated control, Compound I 2 mg/kg, eprinomectin 0.075 mg/kg, ivermectin 0.150 mg/kg
Source text: as §1

[5] = tested on: Cooperia spp.; assay: as above; details: oral; for % Reduction in Worm Counts, Cooperia spp. Females: single treatment Day 0, necropsy Day 16, vs untreated control, Compound I 2 mg/kg, eprinomectin 0.075 mg/kg, ivermectin 0.150 mg/kg
Source text: as §1

[6] = tested on: Haemonchus contortus larvae; assay: In vitro Haemonchus contortus larval motility (L1 to L3 development) assay, MIC90; assay type: cell-based; details: 96 h, L1 larvae in nutrient medium, 27° C., 97% relative humidity, 4 days, motility of L3 vs DMSO control, read-out: MIC90 (minimum concentration inhibiting motility of the larvae by 90%)
Description: The following procedure was used for the study: Twenty L1 Haemonchus contortus larvae were added to wells of a microtitre plate containing a nutrient medium and the test compound in DMSO. The microtitre plate was held at 27° C. and 97% Relative humidity for a 4 day period. Under these conditions the added larvae develop to the L3 stage. The efficacy of a compound is determined based on the motility of the resulting L3 larvae and compared to the motility of control wells treated with DMSO only.

ivermectin
% Reduction in Worm Counts, H. placei Adults [1]: 82% | % Reduction in Worm Counts, O. ostertagi Females [2]: 81% | % Reduction in Worm Counts, O. ostertagi Males [2]: 75% | efficacy against C. oncophora males in words [3]: not effective | % Reduction in Worm Counts, C. oncophora Males [3]: 0% | % Reduction in Worm Counts, C. punctata Males [4]: 91% | % Reduction in Worm Counts, Cooperia spp. Females [5]: 46%

eprinomectin
% Reduction in Worm Counts, H. placei Adults [1]: 98.9% | % Reduction in Worm Counts, O. ostertagi Females [2]: 99.4% | % Reduction in Worm Counts, O. ostertagi Males [2]: 95.7% | % Reduction in Worm Counts, C. oncophora Males [3]: 0% | % Reduction in Worm Counts, C. punctata Males [4]: 94.7% | % Reduction in Worm Counts, Cooperia spp. Females [5]: 55.8%

CC(C#N)(Cn1cc2c(C(F)(F)F)cc(Cl)c(Cl)c2n1)NC(=O)c1ccc(SC(F)(F)F)cc1 (centres unmarked) [Compound II]
MIC90 [6]: 1.2 ng/mL (≈ 2.22 nM)

CC(C#N)(Cn1cc2c(C(F)F)cc(Cl)c(Cl)c2n1)NC(=O)c1ccc(SC(F)(F)F)cc1 (centres unmarked) [Compound I]
MIC90 [6]: 0.3 ng/mL (≈ 0.573 nM) | % Reduction in Worm Counts, H. placei Adults [1]: 100.0% | % Reduction in Worm Counts, O. ostertagi Females [2]: 96.4% | % Reduction in Worm Counts, O. ostertagi Males [2]: 96.3% | efficacy against C. oncophora males in words [3]: significantly more effective | % Reduction in Worm Counts, C. oncophora Males [3]: 83.0% | % Reduction in Worm Counts, C. punctata Males [4]: 100.0% | efficacy against Cooperia spp. female worms in words ([5]; Compound I compared with eprinomectin (Group 3) or ivermectin (Group 4)): significantly more effective | % Reduction in Worm Counts, Cooperia spp. Females [5]: 90.9%

CC(C#N)(Cn1cc2ccc(Cl)cc2n1)NC(=O)c1ccc(SC(F)(F)F)cc1 (centres unmarked) [‘999 App, 2.038]
MIC90 [6]: 2.4 ng/mL (≈ 5.47 nM)

CC(C#N)(Cn1cc2c(Cl)cc(Cl)cc2n1)NC(=O)c1ccc(SC(F)(F)F)cc1 (centres unmarked) [‘999 App, 2.041]
MIC90 [6]: 2.4 ng/mL (≈ 5.07 nM)

CC(C#N)(Cn1cc2c(Cl)cc(Cl)c(Cl)c2n1)NC(=O)c1ccc(SC(F)(F)F)cc1 (centres unmarked) [‘999 App, 2.049]
MIC90 [6]: 1.2 ng/mL (≈ 2.36 nM)
